Columns and labels:
Human S1P3 receptor = target: T1, Human S1P3 receptor (Homo sapiens, UniProt Q99500); assay: Suppression of S1P-induced cellular calcium mobilization in human S1P3 receptor-expression CHO cells (Schild plot, Kd); assay type: cell-based; details: Fluo3 calcium mobilization by S1P, Schild plot analysis, read-out: S1P3 dissociation constant Kd
T1 construct: expressed in transfected cells; host or cells: CHO cells (Geneticin selection)
Procedure: Suppression Effect of Test Compound Against Cellular Calcium Mobilization of Human S1P3 Receptor-Expression Cell by S1P (Sphingosine 1-Phosphoric Acid)
Human S1P3 receptor-expression CHO cells were subcultured in a Ham's F-12 culture medium containing 10% fetal bovine serum, and 300 μg/mL of Geneticin The human S1P3 receptor-expression CHO cells were subjected to 0.25% trypsinization, then recovered from the dish, and floated in a Ham's F-12 culture medium containing 10% fetal bovine serum, and 300 μg/mL of Geneticin. Then, the human S1P3 receptor-expression CHO cells were seeded into a 96-well black clear bottom plate (BD Falcon Biocoat) at 2.5×10^4/100 μL/well. The human S1P3 receptor-expression CHO cells were then cultivated for […] at 37° C. under 5% CO2 environment. The next day, the wells were washed with a Ham's F-12 culture medium containing 100 μL of 0.1% fatty acid-free bovine serum albumin (BSA). This washing treatment was carried out 3 times. The culture medium was exchanged with a Ham's F-12 culture medium containing 0.1% BSA, and then starved of serum for 6 hours in a CO2 incubator set at 37° C.
The culture medium was thrown away after the 6 hours. Then, 50 μL/well of a Fluo3 loading buffer was added, and the cultures were cultivated for further 1 hour. The Fluo3 loading buffer was prepared as follows. First, equal amounts of Fluo3-AM (Dojindo) and pluronic F-127 (20% DMSO solution, invitrogen) weremixed. Then, the mixture of Fluo3-AM andpluronic F-127 was added into a Hanks-HEPES buffer (Hanks balanced salt solution containing 20 mM HEPES (pH 7.4), 0.1% BSA (fatty acid-free), and 2.5 mM probenecid) to form a Fluo3 loading buffer having a final Fluo3-AM concentration of 4 μM.
After incubating for 1 hour, the wells were washed 3 times with 100 μL of the Hanks-HEPES buffer. 100 μL of the same buffer in which a test compound (0.125 nM, 1.25 nM, 12.5 nM, 125 nM, 1.25 μM) or DMSO had been dissolved were added to the each well, and then incubated for 30 minutes at 37° C. in a microplate spectrophotofluorometer (FLEX Station (Molecular Device Co., Ltd.)). Then, 25 μL of S1P prepared at 5 times the concentration of the final concentration based on serial dilution (final concentration of 0.1 nM, 1 nM, 10 nM, 100 nM, and 1 μM) was added, and the fluorescence based on the Fluo3 due to calcium mobilization was detected and measured at an excitation wavelength of 485 nm and a detection wavelength of 525 nm using an same apparatus. Based on the measurement data, the increase in fluorescence was calculated by subtracting the minimum fluorescence intensity from the maximum fluorescence intensity. The calculated increase in fluorescence was used to perform a curve approximation of the relationship between the S1P concentration and the increase in fluorescence using PRISM 4 software (GraphPad). Based on the results, the EC50 value of the compound-untreated and the EC50 value of the compound-treated at each concentration was calculated. Based on these values, Schild plot analysis was carried out in order to determine the dissociation constant Kd. In Table 1, 1 nmol/L>Kd value≧0.1 nmol/L is indicated as “+”, 0.1 nmol/L>Kd value≧0.01 nmol/L is indicated as “++”, and 0.01 nmol/L>Kd value is indicated as “+++”.

S1P1 receptor [1] = target: T2, S1P1 receptor (Homo sapiens, UniProt P21453); assay: Intracellular calcium mobilization derivative test (agonist action) in human S1P1 receptor-expression CHO cells; assay type: cell-based; set-up: expressed in transfected cells; host or cells: CHO cells (Geneticin selection); details: agonist mode, up to 10 μM
Procedure: Intracellular Calcium Mobilization Derivative Test of Test Compound Against Human S1P1 Receptor-Expression Cell
Human S1P1 receptor-expression CHO cells were subcultured in a Ham's F-12 culture medium containing 10% fetal bovine serum, and 300 μg/mL of Geneticin. The human S1P1 receptor-expression CHO cells were subjected to 0.25% trypsinization, then recovered from the dish, and floated in a Ham's F-12 culture medium containing 10% fetal bovine serum, and 300 μg/mL of Geneticin. Then, the human S1P1 receptor-expression CHO cells were seeded into a 96-well black clear bottom plate (BD Falcon Biocoat) at 2.5×10^4/100 μL/well. […]
After incubating for 1 hour, the wells were washed 3 times with 100 μL of the Hanks-HEPES buffer. […] Then, 25 μL of the same buffer dissolved with DMSO, or S1P prepared at 5 times the concentration of the final concentration based on serial dilution or the test compound (final concentration of 0.1 nM, 1 nM, 10 nM, 100 nM, 1 μM, and 10 μM) was added, and the fluorescence based on the Fluo3 due to calcium mobilization was detected and measured at an excitation wavelength of 485 nm and a detection wavelength of 525 nm using the same apparatus. Based on the measurement data, the increase in fluorescence was calculated by subtracting the minimum fluorescence intensity from the maximum fluorescence intensity. […]

S1P1 receptor [2] = target: T2, S1P1 receptor; assay: Antagonistic action on the S1P1 receptor by the method of Experiment Example 1 (Kd); assay type: cell-based; set-up: expressed in transfected cells
[3] = test system: Cecal ligation and puncture (CLP) sepsis; assay: Cecal ligation and puncture sepsis model, survival; assay type: in vivo, Wistar rats; details: CLP rats
Procedure: Cecal Ligation and Puncture Sepsis Model
This model is widely used as a model for polymicrobial abdominal sepsis caused by leakage of intestinal bacteria. The experiment was carried out with reference to the method described in Non-Patent Literature 9 (D. Rittirsch et al., Nature Protocols, 4, 31 (2009)).
Preparation of Cecalligation and Puncture (CLP) Sepsis Mice
Wistar rats (Charles River Laboratories, Japan Inc., male 8 W) were used. The abdominal portion of the rats was cut open under isoflurane anesthesia, and the appendix was exteriorized. The appendix was ligated with sterilized silk thread, and 10 holes were opened in the tip portion of the appendix using an 18 G syringe needle. After the treatment, the appendix was returned to the body, and the wound was sutured. Further, physiological saline was subcutaneously administered at a dose of 30 mL/kg. The rats were then returned to their cages, and observed for 7 days to determine the survival rate.
Test Compound Administration Method
The test compound was continuously administered via a cannula stuck in the femoral vein at a dose of 0.1 mg/kg/hr. Administration of the test compound was started 1 hour after the CLP procedure was finished.

T2 sequence (P21453 whole entry): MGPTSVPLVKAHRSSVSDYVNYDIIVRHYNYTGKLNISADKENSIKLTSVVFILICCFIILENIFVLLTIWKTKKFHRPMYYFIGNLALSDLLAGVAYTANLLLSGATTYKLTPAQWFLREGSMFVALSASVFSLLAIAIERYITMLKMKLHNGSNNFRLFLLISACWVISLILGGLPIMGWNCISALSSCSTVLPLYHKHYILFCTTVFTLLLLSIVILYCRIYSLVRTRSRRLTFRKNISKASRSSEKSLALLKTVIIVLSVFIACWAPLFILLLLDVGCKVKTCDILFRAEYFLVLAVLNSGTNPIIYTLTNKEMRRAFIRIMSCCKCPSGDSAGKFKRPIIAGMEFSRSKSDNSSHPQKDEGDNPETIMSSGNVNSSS
T1 sequence (Q99500 whole entry): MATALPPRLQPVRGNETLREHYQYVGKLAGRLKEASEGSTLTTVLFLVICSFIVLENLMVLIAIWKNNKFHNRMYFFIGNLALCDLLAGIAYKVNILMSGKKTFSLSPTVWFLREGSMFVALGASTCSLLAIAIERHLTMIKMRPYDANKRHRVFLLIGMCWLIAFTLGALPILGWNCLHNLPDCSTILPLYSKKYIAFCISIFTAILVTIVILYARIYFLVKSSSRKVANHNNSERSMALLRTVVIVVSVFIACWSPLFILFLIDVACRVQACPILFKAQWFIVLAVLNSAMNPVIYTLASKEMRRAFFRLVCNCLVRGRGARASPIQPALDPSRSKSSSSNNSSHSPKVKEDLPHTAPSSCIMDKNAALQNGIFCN

| Compound | Kd (Human S1P3 receptor) | EC50 (S1P1 receptor [1]) | Kd (S1P1 receptor [2]) | survival lengthening action, Log-rank test p ([3]; 0.1 mg/kg/hr continuous via femoral vein from 1 hour after CLP, vs medium administration group) | survival rate, test subjects alive after 3 days ([3]; 0.1 mg/kg/hr continuous via femoral vein, after 3 days) | survival rate, test subjects alive after 7 days ([3]; 0.1 mg/kg/hr continuous via femoral vein, after 7 days) |
| --- | --- | --- | --- | --- | --- | --- |
| CCC[C@](N)(CCc1ccc(Sc2cc(OCC)ccc2O)cc1Cl)COP(=O)(O)O [Example 2, (S)-2-amino-4-{2-chloro-4-(5-ethoxy-2-hydroxyphenylthio)phenyl}-2-propylbutylphosphoric acid monoester] | < 0.01 nM | > 10000 nM | 1.6 nM | < 0.01 | 25% | 12.5% |
| CCC[C@](N)(CCc1ccc(Sc2cc(C(C)=O)ccc2O)cc1Cl)COP(=O)(O)O [compound 36, (S)-4-[4-(5-acetyl-2-hydroxyphenylthio)-2-chlorophenyl]-2-amin o-2-propylbutylphosphoric acid monoester] | 0.1 to 1 nM |  |  |  |  |  |
| N[C@@](CCCO)(CCc1ccc(Sc2cc(C3CC3)ccc2O)cc1Cl)COP(=O)(O)O [compound 19] | 0.1 to 1 nM |  |  |  |  |  |
| CCC[C@](N)(CCc1ccc(Sc2cc(C#N)ccc2O)cc1Cl)COP(=O)(O)O [compound 35, (S)-2-amino-4-[2-chloro-4-(5-cyano-2-hydroxyphenylthio)Phenyl]-2-propylbutylphosphoric acid monoester] | 0.1 to 1 nM |  |  |  |  |  |
| C=CC[C@](N)(CCc1ccc(Sc2cc(C#N)ccc2O)cc1Cl)COP(=O)(O)O [compound 28, (R)-2-allyl-2-amino-4-{2-chloro-4-(5-cyano-2-hydroxyphenylthio)phenyl}butylphosphoric acid monoester] | 0.1 to 1 nM |  |  |  |  |  |
| C=CC[C@](N)(CCc1ccc(Sc2cc(OCC)ccc2O)cc1Cl)COP(=O)(O)O [Example 1, (R)-2-allyl-2-amino-4-{2-chloro-4-(5-ethoxy-2-hydroxyphenylthio)phenyl}butylphosphoric acid monoester] | < 0.01 nM | > 10000 nM | 2.66 nM |  |  |  |
